From PMC12136037, “Type II kinase inhibitors that target Parkinson’s disease–associated LRRK2” (Science Advances, 2025)
“And” between values parts separate entries of the source, which are not always exact repeats. Equal entries are not always repeated.

How the values were obtained:
LRRK2^RCKW = biological target: T1, LRRK2^RCKW (Homo sapiens, UniProt Q5S007); test: Biochemical LRRK2 activity assay (PhosphoSense, AssayQuant SOX peptide AQT0615); conditions: for normalized response (LRRK2 activity): normalized to 0% (no kinase) and 100% (no inhibitor) control, two singlicate columns per compound; for IC50: LRRK2^RCKW kinase activity, in vitro
T1 construct: LRRK2 R1327 to E2527; His6-Z-tag (TEV cleavable) (N, cleaved yes); host or cells: Sf9 insect cells (baculovirus)
T1 sequence (Q5S007 1327-2527): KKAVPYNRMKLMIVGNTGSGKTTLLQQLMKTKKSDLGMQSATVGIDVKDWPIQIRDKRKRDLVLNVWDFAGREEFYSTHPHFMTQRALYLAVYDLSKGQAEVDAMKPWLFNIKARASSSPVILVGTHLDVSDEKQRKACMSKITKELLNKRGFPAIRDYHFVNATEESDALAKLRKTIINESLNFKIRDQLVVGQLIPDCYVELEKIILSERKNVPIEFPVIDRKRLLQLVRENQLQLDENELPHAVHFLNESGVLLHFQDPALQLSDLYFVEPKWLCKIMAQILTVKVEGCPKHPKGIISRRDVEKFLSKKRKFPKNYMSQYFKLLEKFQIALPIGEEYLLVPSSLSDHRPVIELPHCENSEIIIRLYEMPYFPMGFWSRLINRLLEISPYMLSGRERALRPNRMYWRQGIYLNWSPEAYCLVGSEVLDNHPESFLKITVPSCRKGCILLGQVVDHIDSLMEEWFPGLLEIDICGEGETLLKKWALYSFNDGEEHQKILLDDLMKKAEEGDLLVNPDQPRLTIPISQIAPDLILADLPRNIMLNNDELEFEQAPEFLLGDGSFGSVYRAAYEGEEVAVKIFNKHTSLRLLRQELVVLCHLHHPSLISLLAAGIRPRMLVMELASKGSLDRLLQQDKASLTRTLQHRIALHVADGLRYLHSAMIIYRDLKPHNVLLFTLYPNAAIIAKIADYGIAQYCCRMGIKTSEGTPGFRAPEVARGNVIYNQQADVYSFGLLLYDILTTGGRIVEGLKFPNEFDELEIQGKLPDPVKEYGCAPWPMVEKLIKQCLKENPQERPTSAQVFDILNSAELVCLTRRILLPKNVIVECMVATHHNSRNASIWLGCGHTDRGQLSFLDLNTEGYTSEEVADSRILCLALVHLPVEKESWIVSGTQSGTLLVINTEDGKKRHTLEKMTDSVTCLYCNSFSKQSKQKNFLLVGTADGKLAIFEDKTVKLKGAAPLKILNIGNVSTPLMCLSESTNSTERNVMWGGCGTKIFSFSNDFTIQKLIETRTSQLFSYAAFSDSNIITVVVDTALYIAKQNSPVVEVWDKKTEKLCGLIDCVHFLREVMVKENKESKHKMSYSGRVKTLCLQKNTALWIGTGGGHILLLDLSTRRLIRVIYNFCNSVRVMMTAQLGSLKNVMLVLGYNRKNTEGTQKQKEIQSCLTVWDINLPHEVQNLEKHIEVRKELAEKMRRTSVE
Protocol: Two wells per compound were used as 0% (without protein and compound) and 100% (without compound) control. […] The 0% control wells were filled with 10 μl of pure reaction buffer. With the ECHO, 5 nl of 100 mM ATP was pipetted into each well, the plates were centrifuged at 1500g for 2 min, and the reaction was incubated at room temperature for 4 hours. The fluorescence of the SOX-peptide after 360-nm excitation was measured at 487-nm emission with a PHERAstar plate reader (BMG Labtech). The IC50 values were calculated from a nonlinear regression of the log[inhibitor] versus the normalized response with GraphPad Prism 8 (www.graphpad.com/, RRID:SCR_002798).

LRRK2^KW = biological target: T2, LRRK2^KW (Homo sapiens, UniProt Q5S007); test: DSF thermal stabilization of LRRK2^KW; type: binding; conditions: for ∆Tm (K): DSF, LRRK2^KW, 10 μM inhibitor; for dTm LRRK2(KW) [K]: screen of 31 type-II inhibitors, Table S1
T2 construct: LRRK2 R1847 to E2527; His6-Z-tag (TEV cleavable) (N, cleaved yes); host or cells: Sf9 insect cells (baculovirus)
T2 sequence (Q5S007 1847-2527): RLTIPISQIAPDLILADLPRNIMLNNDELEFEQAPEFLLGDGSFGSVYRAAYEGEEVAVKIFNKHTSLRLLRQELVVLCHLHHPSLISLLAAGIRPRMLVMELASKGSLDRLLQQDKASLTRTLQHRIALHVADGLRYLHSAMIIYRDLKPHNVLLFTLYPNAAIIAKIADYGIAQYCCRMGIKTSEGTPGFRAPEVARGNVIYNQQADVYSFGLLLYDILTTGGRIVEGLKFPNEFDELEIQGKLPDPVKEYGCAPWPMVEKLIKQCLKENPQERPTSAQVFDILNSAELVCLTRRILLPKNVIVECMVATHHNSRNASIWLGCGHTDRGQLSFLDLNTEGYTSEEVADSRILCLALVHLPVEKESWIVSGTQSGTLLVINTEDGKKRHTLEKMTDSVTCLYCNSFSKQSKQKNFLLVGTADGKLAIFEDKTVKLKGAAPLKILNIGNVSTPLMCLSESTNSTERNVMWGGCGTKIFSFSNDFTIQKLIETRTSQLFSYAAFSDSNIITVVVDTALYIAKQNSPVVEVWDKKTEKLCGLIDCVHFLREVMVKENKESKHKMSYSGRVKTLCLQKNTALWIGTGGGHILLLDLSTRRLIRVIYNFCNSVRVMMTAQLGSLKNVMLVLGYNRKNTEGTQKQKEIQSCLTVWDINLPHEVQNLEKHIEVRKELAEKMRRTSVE
Protocol: To characterize binding between small molecules and LRRK2^KW, induced thermal stabilization was measured by DSF according to previously established protocols ([47]). In brief, LRRK2^KW was diluted to 4 μM in 20 mM Hepes (pH 7.4), 150 mM NaCl, 0.5 mM TCEP, 0.5% glycerol, 20 μM GDP, and 2.5 mM MgCl2, and SYPRO Orange was added (1:1000, MilliporeSigma). Inhibitor (10 μM) to be tested was added to a final sample volume of 20 μl per well of a 96-well plate (white, Starlab). […] The fluorescence was plotted against the temperature, and the melting point (Tm) was determined as the minimum of the first derivative relative to the control.

Row | Structure (SMILES) | normalized response (LRRK2 activity) (LRRK2^RCKW; log[inhibitor(mol)] -6.90309) | normalized response (LRRK2 activity) (LRRK2^RCKW; log[inhibitor(mol)] -7.30103) | normalized response (LRRK2 activity) (LRRK2^RCKW; log[inhibitor(mol)] -7.60206) | normalized response (LRRK2 activity) (LRRK2^RCKW; log[inhibitor(mol)] -8.09691) | normalized response (LRRK2 activity) (LRRK2^RCKW; log[inhibitor(mol)] -8.61979) | normalized response (LRRK2 activity) (LRRK2^RCKW; log[inhibitor(mol)] -9.09691) | normalized response (LRRK2 activity) (LRRK2^RCKW; log[inhibitor(mol)] -9.39794) | ∆Tm (K) (LRRK2^KW) | IC50 (LRRK2^RCKW) [µM] | normalized response (LRRK2 activity) (LRRK2^RCKW; log[inhibitor(mol)] -5.12494) | normalized response (LRRK2 activity) (LRRK2^RCKW; log[inhibitor(mol)] -5.60206) | normalized response (LRRK2 activity) (LRRK2^RCKW; log[inhibitor(mol)] -6.30103) | normalized response (LRRK2 activity) (LRRK2^RCKW; log[inhibitor(mol)] -4.82391) | dTm LRRK2(KW) [K] (LRRK2^KW)
1 | COc1cc(S(C)(=O)=O)ccc1Nc1nc(N(C)C)c2c(-c3cccc(NC(=O)Nc4cc(C(C)(C)C)nn4-c4ccc5ncccc5c4)c3)c[nH]c2n1 [Compound 35] | 115.444% and 117.007% | 105.55% and 105.293% | 108.325% and 105.046% | 100.105% and 95.8379% | 94.7466% and 91.6315% | 101.92% and 85.7909% | 98.761% and 96.3918% | 1.5 |  |  |  |  |  | 
2 | CN1CCc2cc(NC(=O)C3(C(=O)Nc4cccc(-c5c[nH]c6ncnc(N7CCOCC7)c56)c4)CC3)ccc2C1 [Compound 10] | 102.663% and 58.1284% | 103.229% and 99.9077% | 100.894% and 96.1562% | 96.775% and 100.111% | 99.9803% and 105.134% | 138.579% and 106.168% | 136.224% and 108.416% | 4.3 | 3.18 ± 0.134 | 28.5996% and 28.8703% | 54.9087% and 59.3757% | 85.68% and 83.1467% |  | 
3 | COc1cc(C(=O)N2CCOCC2)c(F)cc1Nc1nc(N(C)C)c2c(-c3cccc(NC(=O)Nc4cc(C(C)(C)C)nn4-c4ccc(C)cc4)c3)c[nH]c2n1 [Compound 34] | 79.3769% and 75.1697% | 94.0291% and 93.4725% | 99.2059% and 99.0146% | 90.4133% and 94.0334% | 94.5074% and 96.3707% | 98.4515% and 93.6442% | 99.1494% and 99.7973% | 0.0 | 2.82 ± 1.7 | 30.8718% and 33.6962% | 50.116% and 50.3008% | 30.7392% and 30.2826% | 44.1151% and 42.1018% | 
4 | Cn1cc(-c2c[nH]c3ncnc(N4CCOCC4)c23)cc1C#N [PF-360, reference compound] | -15.2172% and -15.9196% | -14.8814% and -10.0789% |  | -1.676% and 1.585% | 61.433% and 54.956% | 90.2569% and 81.7741% | 97.0785% and 81.4958% | 14.0 ± 0.7 |  | -13.9757% and -14.0596% | -14.9079% and -13.9094% | -16.2775% and -13.8122% | -6.35% and -14.8637% | 
5 | Cc1ccc(NC(=O)C2(C(=O)Nc3ccc(F)cc3)CC2)cc1-c1c[nH]c2ncnc(N3CCOCC3)c12 [Compound 5] | 96.7944% and 101.803% | 96.688% and 103.084% | 102.717% and 103.476% | 97.9836% and 98.7571% | 100.995% and 103.804% | 100.705% and 102.156% | 104.655% and 105.003% | 1.8 | 9.58 ± 0.565 | 55.8562% and 55.0924% | 86.5066% and 85.5833% |  |  | 
6 | Cc1ccc(NC(=O)c2cccc(N(C)C)c2)cc1NC(=O)c1ccc(O)cc1 [ZM336372, reference compound] |  |  |  |  |  |  |  |  |  |  |  |  |  | -1
7 | Cc1ccc(NC(=O)c2ccc(CN3CCN(C)CC3)cc2)cc1Nc1nc(-c2cccnc2)cs1 [Masitinib, reference compound] |  |  |  |  |  |  |  |  |  |  |  |  |  | 0
